Like-named read-outs stand apart in the source and are kept apart here. Blank lines part the entries; values can stand above or below the compound they belong to.
Tests used:
Format in all cases: cell-based
human neonatal MoDCs = assay: Neonatal monocyte-derived dendritic cell (MoDC) stimulation, TNF ELISA; settings: 24 h
Excerpt: Heparinized human newborn cord blood or adult peripheral blood was layered onto Ficoll-Hypaque gradients (Ficoll-Paque PREMIUM, GE Healthcare, Waukesha, WI) to collect CBMC or peripheral blood mononuclear cell layers (PBMC), respectively. Monocytes were isolated from mononuclear cell fractions by positive selection by magnetic microbeads according to the manufacturer’s instructions (Miltenyi Biotec, Auburn, CA) using CD14 or CD33 as a pan-marker for monocytes. Monocyte preparations were >95% pure as assessed by flow cytometry for CD14 as previously described. […] After 5–6 days, immature MoDCs (HLA-DR^+, CD14^−, DC-SIGN^+ as measured by flow cytometry) of >90% purity were harvested by gently pipetting only the loosely adherent fraction and re-plated (10^5 cells/well) in 96-well U-bottom plates in the presence or absence of TLR agonists.
Following TLR agonist stimulation, MoDCs were resuspended in staining buffer (1×PBS, 0.5% human serum albumin (HSA)) and stained for 30 min at 4°C in the dark (1.5×10^5/per staining) with fluorophore-labeled antibodies (FITC/HLA-DR and PE/CD86) (BD Biosciences). Cells were then centrifuged, washed, fixed (1% paraformaldehyde (PFA)) and filtered prior to flow cytometry analysis using a MoFlo Legacy cytometer (DakoCytomation, Fort Collins, CO) and analyzed using FlowJo software (Tree Star). […]

[1] = tested on: human adult peripheral blood; assay: Adult whole blood assay, TNF / IL-1β ELISA; settings: mean, n = 4-9; for EC50: Homo sapiens
human newborn cord blood [2] = assay: Newborn whole blood assay, TNF / IL-1β ELISA; settings: mean, n = 4-9
[3] = tested on: human adult peripheral blood; assay: Adult whole blood assay, TNF / IL-1β ELISA; settings: baseline subtracted
Excerpt: (§1) Peripheral blood was collected from healthy adult volunteers, while human newborn cord blood was collected immediately after Cesarean section delivery of the placenta. Births to HIV-positive mothers were excluded. Human experimentation guidelines of the U.S. Department of Health and Human Services, The Brigham & Women’s Hospital, and Boston Children’s Hospital were observed, following protocols approved by the local institutional review boards. Human blood was anti-coagulated with 15–20 units/ml pyrogen-free sodium heparin (American Pharmaceutical Partners, Inc., Schaumberg, IL). All blood products were kept at room temperature and processed within 4 hrs of collection.
(§2) For assessment of TLR agonist activity in whole blood, we used an adaptation of the method of Kollmann et al., [33]. […] Suspensions containing 200 µl/well were gently mixed by pipetting and incubated for 2–24 h at 37°C in a humidified incubator at 5% CO2. After culture, plates were centrifuged at 500×g and 110–150 µl of supernatant was carefully removed by pipetting without disturbing the cell pellet. Supernatants derived from human leukocyte stimulations were assayed by ELISA for TNF (BD Biosciences, San Jose, CA, USA) and IL-1β (eBiosciences, San Diego, CA). Additionally, WB supernatants were analysed by Multi-Analyte Profiling (MAP). Briefly, supernatant samples were frozen at −80°C and submitted to Myriad RBM (Austin, TX, USA) for screening with a modified Human InflammationMAP® v. 1.6 antigen panel, which analyzed the samples for the presence of 98 analytes associated with inflammation. The minimum threshold for each analyte was set at the minimum detectable dose for that particular assay (defined as three standard deviations above the mean background).
(§3) Compound concentrations are shown in µM, except for MPLA, which are shown in ng/ml. Data are shown as mean ± SEM of n = 5–8.

human newborn cord blood [4] = assay: Newborn whole blood assay, TNF / IL-1β ELISA; settings: for Newborn WBA IL-1β / Newborn WBA TNF: baseline subtracted
Excerpt: as §1, §2, §3

EC50 ([1]; read-out: Adult WBA IL-1β EC50): 1620 nM
EC50 ([1]; read-out: Adult WBA TNF EC50): 1040 nM
EC50 (human newborn cord blood [2]; Homo sapiens, read-out: Newborn WBA TNF EC50): 1500 nM
EC50 (human newborn cord blood [4]; Homo sapiens, mean, n = 4-9, read-out: Newborn WBA IL-1β EC50): 6650 nM
Compound: CCOCc1nc2c(N)nc3ccccc3c2n1CC(C)(C)O [R848]
lowest concentration inducing MoDC TNF production (human neonatal MoDCs; tested 0.1, 0.3, 10 µM): 10 µM
Adult WBA IL-1β ([3]; agonist 0.1 μM): 2 pg/mL
Adult WBA TNF ([3]; agonist 0.1 μM): 132 pg/mL
Adult WBA IL-1β ([3]; agonist 0.3 μM): 27 pg/mL
Adult WBA TNF ([3]; agonist 0.3 μM): 750 pg/mL
Adult WBA IL-1β ([3]; agonist 1 μM): 779 pg/mL
Adult WBA TNF ([3]; agonist 1 μM): 6661 pg/mL
Adult WBA IL-1β ([3]; agonist 10 μM): 4762 pg/mL
Adult WBA TNF ([3]; agonist 10 μM): 13913 pg/mL
Adult WBA IL-1β ([3]; agonist 100 μM): 4694 pg/mL
Adult WBA TNF ([3]; agonist 100 μM): 9982 pg/mL
Newborn WBA IL-1β (human newborn cord blood [4]; agonist 0.1 μM): 0 pg/mL
Newborn WBA TNF (human newborn cord blood [4]; agonist 0.1 μM): 0 pg/mL
Newborn WBA IL-1β (human newborn cord blood [4]; agonist 0.3 μM): 9 pg/mL
Newborn WBA TNF (human newborn cord blood [4]; agonist 0.3 μM): 0 pg/mL
Newborn WBA IL-1β (human newborn cord blood [4]; agonist 1 μM): 285 pg/mL
Newborn WBA TNF (human newborn cord blood [4]; agonist 1 μM): 2164 pg/mL
Newborn WBA IL-1β (human newborn cord blood [4]; agonist 10 μM): 7442 pg/mL
Newborn WBA TNF (human newborn cord blood [4]; agonist 10 μM): 33609 pg/mL
Newborn WBA IL-1β (human newborn cord blood [4]; agonist 100 μM): 10822 pg/mL
Newborn WBA TNF (human newborn cord blood [4]; agonist 100 μM): 20117 pg/mL

Adult WBA IL-1β EC50 [1]: 0.00159 µg/mL
Adult WBA TNF EC50 [1]: 0.01259 µg/mL
Newborn WBA IL-1β EC50 (human newborn cord blood [2]): 0.01148 µg/mL
Newborn WBA TNF EC50 (human newborn cord blood [2]): 0.01457 µg/mL
Compound: monophosphoryl lipid A [MPLA]
lowest concentration inducing MoDC TNF production (p<0.05 vs unstimulated) (human neonatal MoDCs; tested 1, 10, 100 ng/ml): 10 ng/mL
Adult WBA IL-1β ([3]; agonist 0.1 ng/ml): 5 pg/mL
Adult WBA TNF ([3]; agonist 0.1 ng/ml): 128 pg/mL
Adult WBA IL-1β ([3]; agonist 0.3 ng/ml): 27 pg/mL
Adult WBA TNF ([3]; agonist 0.3 ng/ml): 33 pg/mL
Adult WBA IL-1β ([3]; agonist 1 ng/ml): 95 pg/mL
Adult WBA TNF ([3]; agonist 1 ng/ml): 215 pg/mL
Adult WBA IL-1β ([3]; agonist 10 ng/ml): 763 pg/mL
Adult WBA TNF ([3]; agonist 10 ng/ml): 3353 pg/mL
Adult WBA IL-1β ([3]; agonist 100 ng/ml): 3153 pg/mL
Adult WBA TNF ([3]; agonist 100 ng/ml): 9158 pg/mL
Newborn WBA IL-1β (human newborn cord blood [4]; agonist 0.1 ng/ml): 0 pg/mL
Newborn WBA TNF (human newborn cord blood [4]; agonist 0.1 ng/ml): 0 pg/mL
Newborn WBA IL-1β (human newborn cord blood [4]; agonist 0.3 ng/ml): 0 pg/mL
Newborn WBA TNF (human newborn cord blood [4]; agonist 0.3 ng/ml): 11 pg/mL
Newborn WBA IL-1β (human newborn cord blood [4]; agonist 1 ng/ml): 24 pg/mL
Newborn WBA TNF (human newborn cord blood [4]; agonist 1 ng/ml): 29 pg/mL
Newborn WBA IL-1β (human newborn cord blood [4]; agonist 10 ng/ml): 682 pg/mL
Newborn WBA TNF (human newborn cord blood [4]; agonist 10 ng/ml): 642 pg/mL
Newborn WBA IL-1β (human newborn cord blood [4]; agonist 100 ng/ml): 1628 pg/mL
Newborn WBA TNF (human newborn cord blood [4]; agonist 100 ng/ml): 3665 pg/mL

From paper PMC3587566, “The Ultra-Potent and Selective TLR8 Agonist VTX-294 Activates Human Newborn and Adult Leukocytes” (PLoS ONE, 2013)
